According to patent US20110098219A1, “System for Curing Hepatic Cancer with Leptin” (KAOHSIUNG MEDICAL UNIVERSITY, priority 2009, published 2011):

Columns and labels:
Assay type in all cases: cell-based
MAPK path = experiment: Western blotting of MAPK path proteins in liver cancer cells; details: 10^-6 M U0126 for 4 hours, then MPA+leptin for 3 hours
Source text: Please refer to FIG. 12, which is a view showing expression of MAPK path after applied with a drug. As shown in the figure, after proteins for the JAK2/STAT3 path are suppressed, the preferred embodiment analyzes expression of the proteins through western blotting.
(§1) Please refer to FIG. 13A and FIG. 13A, which are views showing expressions of proteins of JAK/STAT path and proteins of MAPK path after applied with a drug for a short time. As shown in the figures, the preferred embodiment processes liver cancer cells with high-dose leptin, high-dose MPA and high-dose leptin combined with high-dose MPA for 30 minutes. Then, related JAK/STAT proteins are collected for analyzing their expressions through western blotting.
Please refer to FIG. 14, which is a view showing reduced p-STAT3 degradation by suppressing the ERK1/2 activation and the PIAS3 expression. […]
(§2) Please refer to FIG. 15A to FIG. 16B, which are views showing cells containing very much leptin within; suppressed growth of the cells by using MPA; and STAT3- and MAPK-signal paths of the cells after MPA is applied. […] Then, after the cells are processed with 10^−4M MPA for 24 hours, cell growth is analyzed through XTT assay. […] Then, after the cells are processed with 10^−4 M MPA for 24 hours, JAK/STAT-related proteins are analyzed through western blotting.

JAK/STAT path = experiment: Western blotting of JAK/STAT path proteins in liver cancer cells; details: 10^-6 M U0126 for 4 hours, then MPA+leptin for 3 hours
Procedure: Please refer to FIG. 11, which is a view showing expression of JAK/STAT path after applied with a drug. As shown in the figure, the preferred embodiment analyzes related proteins of liver cancer cells through western blotting after applied with MPA+leptin for 24 hours.
as §1
Please refer to FIG. 14, which is a view showing reduced p-STAT3 degradation by suppressing the ERK1/2 activation and the PIAS3 expression. […] The preferred embodiment uses a 10^−6M p-ERK1/2 inhibitor (U0126) for 4 hours before a drug is applied; then, liver cancer cells are applied with the drug of MPA+leptin for 3 hours to collect cellular proteins for analyzing expression of related proteins through western blotting. […] As a conclusion, MPA activates ERK1/2 to indirectly induce PIAS3 expression for suppressing p-STAT3 (Tyr705) for cell apoptosis, where leptin enhances activation of ERK1/2 with MPA for increasing cell apoptosis.
as §2

[1] = system: liver cancer cells (hepatocellular carcinoma cell line); experiment: XTT assay, growth of liver cancer cells; details: high-dose leptin (100 ng), 24 hours
Procedure: Please refer to FIG. 2, which is a view showing leptin's effect on growth of liver cancer cells. As shown in the figure, for acquiring effect of leptin on liver cancer cells, the preferred embodiment uses leptin having different doses, where the high-dose leptin has 100 nano-grams (ng) and the low-dose leptin has 10 ng. The 10 ng leptin is conformed to the physiological concentration of normal human body for observing effect of leptin on the cells. In the other hand, the 100 ng leptin is used to show whether a higher levels of leptin obtains a higher effect on the cells.
Please refer to FIG. 3, which is a view showing MPA's effect on growth of liver cancer cells. As shown in the figure, the preferred embodiment applies MPA having different doses to liver cancer cells.
Please refer to FIG. 4, which is a view showing effect of MPA+leptin on growth of liver cancer cells. As shown in the figure, the preferred embodiment applies MPA combined with leptin to liver cancer cells, where MPA has different doses and leptin has different doses.
Please refer to FIG. 9, which is a view showing reduced effect of MPA+leptin by suppressing leptin receptor expression. As shown in the figure, a 20 nano-moles (nM) of leptin receptor, siRNA, is transferred to cells to be cultured a day and is cultured in a serum-free medium for the next day. Then, the cells are processed with MPA+leptin for 24 hours to be analyzed through XTT assay. […] Thus, it is confirmed that leptin enhances MPA's suppression on the cells through the leptin receptor.
Please refer to FIG. 10A and FIG. 10B, which are views showing apoptosis of cells on increasing expression of leptin receptor and expression of progesterone receptor respectively. As shown in the figures, the preferred embodiment makes ob-Rb plasmid transfected to cells to be cultured a day and is cultured in a serum-free medium for the next day. Then, the cells are processed with MPA+leptin for 24 hours to be analyzed through XTT assay. […] Besides, the long-form Ob-R enhances expression of the progesterone receptor. Again, the preferred embodiment makes PgR plasmid transfected to cells to be cultured a day and is cultured in a serum-free medium for the next day. Then, the cells are processed with MPA+leptin for 24 hours to be analyzed through XTT assay.
Please refer to FIG. 15A to FIG. 16B, which are views showing cells containing very much leptin within; suppressed growth of the cells by using MPA; and STAT3- and MAPK-signal paths of the cells after MPA is applied. As shown in the figures, while leptin is added from outside in state 13 to suppress liver cancer cells with MPA+leptin, the preferred embodiment here transfers expression plasmid of leptin (pcLeptin) to liver cancer cells to be cultured for a day; and a serum-free medium is used for the next day. Then, after the cells are processed with 10^−4M MPA for 24 hours, cell growth is analyzed through XTT assay. In FIG. 15A, leptin gene is transferred to cells for a short time for obtaining very much leptin within the cells by themselves. After applying MPA to the cells for 24 hours, it is confirmed that MPA's suppression on liver cancer cells is enhanced by a lot of leptin self-generated within the cells. Moreover, after obtaining a lot of leptin, medium is collected for immunoprecipitation and further western blotting. […] Then, after the cells are processed with 10^−4 M MPA for 24 hours, JAK/STAT-related proteins are analyzed through western blotting.

[2] = system: epithelial cell line of normal liver (THLE-3); experiment: XTT assay, survival of normal liver epithelial cell line; details: THLE-3, FIG. 17A
Procedure: (§3) Please refer to FIG. 17A to FIG. 18B, which are views showing epithelial cell line of normal liver treated with MPA+leptin for 24 hours and 48 hours respectively; and views showing STAT3- and MAPK-related signal paths after treating cell line of normal liver with MPA+leptin. As shown in the figures, after epithelial cell line of normal liver (THLE-3) is applied with MPA+leptin for […], MPA+leptin's effect on cell growth (i.e. survival rate) is analyzed through XTT assay. […] Besides, in FIG. 18A and FIG. 18B, protein expressions for STAT- and MAPK-related signal paths are analyzed.

[3] = system: STAT- and MAPK-related signal paths; experiment: Protein expression of STAT- and MAPK-related signal paths in normal liver cell line
Procedure: as §3

Compound	PIAS3 (MAPK path)	phosphorylation of ERK1/2 (MAPK path)	expression of p-STAT3 (Tyr705) (JAK/STAT path)	effect on growth of liver cancer cells [1]	effect on survival rate of, and poisoning of, normal liver epithelial cells [2]	effect on STAT- and MAPK-related signal proteins [3]
N#CC(=C(/N)Sc1ccccc1N)/C(C#N)=C(\N)Sc1ccccc1N [U0126]	not induced	suppressed	suppressed	–	–	–
leptin: hormone of single-chain protein; adipokine generated by adipocyte	–	–	–	no obvious effect	no obvious effect	no obvious effect
